Measured values published in patent US9695193B2, “Inhibitors of Plasmodium falciparum equilibrative nucleoside transporter type I as anti-parasitic compounds” (The Trustees of Columbia University in the City of New York, priority 2013, dated 2017).

target: T1, PfENT1 (Plasmodium falciparum, UniProt Q8IDM6); format: cell-based; conditions: primary HTS, compounds at 10 μM, 125 μM 5-FUrd
T1 construct: expressed in transfected cells; host or cells: fui1Δ yeast (Saccharomyces cerevisiae), co-expressing GFP
Protocol: A yeast-based high throughput screening (HTS) assay was used to identify compounds that inhibit PfENT1. The compounds described in this application were identified by screening four commercially available, chemical compound libraries obtained from Dr. Donald Landry's laboratory (Department of Medicine, Columbia University). These libraries contain approximately 80,000 unique chemical entities.
In the primary screen the compounds were tested at a concentration of 10 μM. Hits were identified by the growth of fui1Δ yeast expressing PfENT1 and Green Fluorescent Protein (GFP) in the presence of the cytotoxic nucleoside 5-fluorouridine (5-FUrd). 5-FUrd is transported by PfENT1. PfENT1 expressing fui1Δ yeast will only grow in the presence of 125 μM 5-FUrd if a PfENT1 inhibitor blocks the uptake of 5-FUrd into the yeast. Significant yeast growth in the HTS in 384 well plates was determined by two criteria: 1) turbidity as determined by the optical density at 620 nm (OD620) and 2) GFP fluorescence intensity. […] Hits had to be positive by both criteria.

T1 sequence (Q8IDM6 whole entry): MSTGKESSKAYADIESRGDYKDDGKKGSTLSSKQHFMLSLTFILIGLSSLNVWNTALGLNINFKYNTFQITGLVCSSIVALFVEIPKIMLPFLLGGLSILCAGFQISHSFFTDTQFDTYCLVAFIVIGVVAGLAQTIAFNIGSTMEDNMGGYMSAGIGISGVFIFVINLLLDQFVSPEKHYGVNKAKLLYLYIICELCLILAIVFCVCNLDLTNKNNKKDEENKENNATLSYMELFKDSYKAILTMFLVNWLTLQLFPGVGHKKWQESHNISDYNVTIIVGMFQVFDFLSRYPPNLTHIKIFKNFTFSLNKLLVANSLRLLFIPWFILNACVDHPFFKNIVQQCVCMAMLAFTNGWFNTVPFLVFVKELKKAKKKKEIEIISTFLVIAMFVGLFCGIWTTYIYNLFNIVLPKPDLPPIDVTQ

SMILES	Avg Normalized % maximal activity [%]
COc1ccc(-c2nnc(SCc3csc(C)n3)o2)cc1OC [compound 142, 2-(3,4-dimethoxyphenyl)-5-{[(2-methyl-1,3-thiazol-4-yl)methyl]thio}-1,3,4-oxadiazole]	3.09
COc1cccc(C(=O)Nc2cccc(-c3nnc(-c4ccco4)o3)c2)c1 [compound 9, N-{3-[5-(2-furyl)-1,3,4-oxadiazol-2-yl]phenyl}-3-methoxybenzamide]	54.12
Cc1ccnc(NC(=O)c2cccc(NC(=O)c3ccco3)c2)c1 [compound 65, N-(3-{[(4-methyl-2-pyridinyl)amino]carbonyl}phenyl)-2-furamide]	7.09
NCCc1cc(O)c(O)cc1O [compound 84]	5.72
O=P1(N(CCCl)CCCl)NCCCO1 (stereo not shown) [compound 82]	5.76
COC(=O)c1cc(NC(=O)c2cc3ccccc3o2)ccc1N1CCOCC1 [compound 73, methyl 5-[(1-benzofuran-2-ylcarbonyl)amino]-2-morpholin-4-ylbenzoate]	6.43
Cc1nc(NC(=O)c2sc3ccccc3c2Cl)sc1C(=O)N(C)C [compound 10, 2-{[(3-chloro-1-benzothien-2-yl)carbonyl]amino}-N,N,4-trimethyl-1,3-thiazole-5-carboxamide]	45.82
COCc1cc(C)nc2sc(C(=O)Nc3cccc(OC)c3)c(N)c12 [compound 53, 3-amino-4-(methoxymethyl)-N-(3-methoxyphenyl)-6-methylthieno [2,3-b]pyridine-2-carboxamide]	7.94
O=C(O)c1ccc(S(=O)(=O)N(Cl)Cl)cc1 [compound 151]	2.60
C[C@H]1CC[C@]2(NC1)O[C@H]1C[C@H]3[C@@H]4CC[C@H]5C[C@@H](O[C@@H]6O[C@H](CO)[C@H](O[C@@H]7O[C@H](CO)[C@@H](O)[C@H](O[C@@H]8OC[C@@H](O)[C@H](O)[C@H]8O)[C@H]7O[C@@H]7O[C@H](CO)[C@@H](O)[C@H](O)[C@H]7O)[C@H](O)[C@H]6O)CC[C@]5(C)[C@H]4CC[C@]3(C)[C@H]1[C@@H]2C [compound 95]	5.00
O=C(Nc1sc2c(c1CNC1CCCCC1)CCCC2)c1ccccc1 [compound 148, N-{3-[(cyclohexylamino)methyl]-4,5,6,7-tetrahydro-1-benzothien-2-yl} benzamide]	2.74
COc1cc(NC(=O)c2cccc(Br)c2)nc(OC)n1 [compound 101, 3-bromo-N-(2,6-dimethoxy-4-pyrimidinyl)benzamide]	4.78
CC(=O)[C@H]1CC[C@H]2[C@@H]3C[C@H](C)C4=CC(=O)CC[C@]4(C)[C@H]3[C@@H](O)C[C@]12C [compound 121]	4.13
O=[N+]([O-])c1ccc(C2Nc3c(F)cccc3C3C=CCC32)cc1 (stereo not shown) [compound 164, 6-fluoro-4-(4-nitrophenyl)-3a,4,5,9b-tetrahydro-3H-cyclopenta[c]quinoline]	2.01
COc1ccc(OC)c(Nc2nc(=O)c3cccnc3s2)c1 [compound 63, 2-[(2,5-dimethoxyphenyl)amino]-4H-pyrido[3,2-e][1,3] thiazin-4-one]	7.19
COCc1cc(C)nc2sc(C(=O)Nc3ccc(C(=O)OC)cc3)c(N)c12 [compound 119, methyl 4-({[3-amino-4-(methoxymethyl)-6-methylthieno[2,3-b]pyridin-2-yl]carbonyl}amino)benzoate]	4.25
CCOc1ccccc1C(=O)Nc1nc(C)c(C(=O)N(C)C)s1 [compound 83, 2-[(2-ethoxybenzoyl)amino]-N,N,4-trimethyl-1,3-thiazole-5-carboxamide]	5.75
COC(=O)c1ccccc1NC(=O)c1cccc(NC(=O)C(C)C)c1 [compound 52]	8.03
COCc1cc(C)nc2sc(C(=O)Nc3ccc(NC(C)=O)cc3)c(N)c12 [compound 162, N-[4-(acetylamino)phenyl]-3-amino-4-(methoxymethyl)-6-methylthieno [2,3-b]pyridine-2-carboxamide]	2.04
O=C(Nc1ccc(-c2nc3ccccc3o2)cc1)C1CCCO1 (stereo not shown) [compound 49, N-[4-(1,3-benzoxazol-2-yl)phenyl]tetrahydro-2-furancarboxamide]	8.36
O=C(Nc1ccc2oc(-c3cccnc3)nc2c1)c1ccc(Br)o1 [compound 85, 5-bromo-N-[2-(3-pyridinyl)-1,3-benzoxazol-5-yl]-2-furamide]	5.64
O=C(CSc1nnc(-c2ccc(Cl)cc2Cl)o1)N1CCCCC1 [compound 45, 1-({[5-(2,4-dichlorophenyl)-1,3,4-oxadiazol-2-yl]thio}acetyl)piperidine]	8.97

SMILES	Avg Normalized % maximal activity [%]
COc1c(C)c2c(c(O)c1C/C=C(\C)CCC(=O)OCCN1CCOCC1)C(=O)OC2 [compound 127]	3.85
O=C(Nc1c(-c2ccccc2)nc2ccc(Cl)cn12)c1ccccc1 [compound 167, N-(6-chloro-2-phenylimidazo [1,2-a]pyridin-3-yl)benzamide]	1.96
CC(C)[C@@H]1CC[C@@H](C)CC1=O [compound 129]	3.73
O=C(Nc1cccc(-c2cn3ccsc3n2)c1)c1ccccc1F [compound 20, 2-fluoro-N-(3-imidazo[2,1-b][1,3]thiazol-6-ylphenyl)benzamide]	19.78
CN(C(=O)c1cc2c(=O)n3ccccc3nc2n1C)C1CCCCC1 [compound 153, N-cyclohexyl-N,1-dimethyl-4-oxo-1,4-dihydropyrido [1,2-a]pyrrolo[2,3-d] pyrimidine-2-carboxamide]	2.37
Cc1ccccc1C(=O)Nc1ccc(-c2nc3ncccc3o2)cc1 [compound 105, 2-methyl-N-(4-[1,3]oxazolo[4,5-b]pyridin-2-ylphenyl)benzamide]	4.70
Cc1cc(C)cc(C(=O)Nc2cccc(NC(=O)c3ccco3)c2)c1 [compound 75, N-{3-[(3,5-dimethylbenzoyl)amino]phenyl}-2-furamide]	6.27
CCC(=O)c1ccc(/C=C/c2nc3ccccc3n2C)o1 [compound 66, 1-{5-[2-(1-methyl-1H-benzimidazol-2-yl)vinyl]-2-furyl}-1-propanone]	7.04
Cc1cccc(N2C(=O)CC(NC3CCCC3)C2=O)c1 (stereo not shown) [compound 104, 3-(cyclopentylamino)-1-(3-methylphenyl)-2,5-pyrrolidinedione]	4.72
COc1ccc(Cl)cc1NC(=O)c1ccc2nccnc2c1 [compound 87, N-(5-chloro-2-methoxyphenyl)-6-quinoxaline-carboxamide]	5.62
O=C(Nc1ccc(-c2nnc(-c3ccccc3)o2)cc1)c1ccccc1Cl [compound 132]	3.60
O=C(Nc1nc2c(s1)C(=O)CCC2)c1ccccc1Cl [compound 24, 2-chloro-N-(7-oxo-4,5,6,7-tetrahydro-1,3-benzothiazol-2-yl)benzamide]	16.16
O=c1[nH]c(/C=C/c2ccccc2Cl)nc2ccccc12 [compound 18, 2-[2-(2-chlorophenyl)vinyl]-4(3H)-quinazolinone]	21.82
Cc1ccc(NC(=O)CSc2nc3cccnc3[nH]2)c(C)c1 [compound 157, N-(2,4-dimethylphenyl)-2-(3H-imidazo[4,5-b]pyridin-2-ylthio)acetamide]	2.12
COc1ccc(-c2nc3ccccc3s2)cc1NC(=O)c1cccnc1 [compound 58, N-[5-(1,3-benzothiazol-2-yl)-2-methoxyphenyl] nicotinamide]	7.63
COc1ccc(OC)c(NC(=O)COc2ccc3ccccc3c2)c1 [compound 163, N-(2,5-dimethoxyphenyl)-2-(2-naphthyloxy)acetamide]	2.04
C[C@@H]1C[C@@H](O[C@H]2[C@H](O[C@H]3CC[C@@]4(C)C(CC[C@]5(C)[C@@H]4CC=C4C6CC(C)(C)CC[C@]6(C(=O)O[C@@H]6O[C@H](CO[C@@H]7O[C@H](CO)[C@@H](O[C@@H]8O[C@@H](C)[C@H](O)[C@@H](O)[C@H]8O)[C@H](O)[C@H]7O)[C@@H](O)[C@H](O)[C@H]6O)CC[C@]45C)[C@]3(C)CO)OC[C@H](O)[C@@H]2O)[C@H](O)[C@H](O)[C@H]1O (stereo partly shown) [compound 38]	10.61
COc1cc(NC(=O)CSc2nccc(C)n2)c(OC)cc1Cl [compound 117, N-(4-chloro-2,5-dimethoxyphenyl)-2-[(4-methyl-2-pyrimidinyl)thio]acetamide]	4.28
CCOC(=O)c1ccc(NC(=O)c2nn(CC)cc2Br)cc1 [compound 79, ethyl 4-{[(4-bromo-1-ethyl-1H-pyrazol-3-yl)carbonyl]amino}benzoate]	6.01
COc1ccc(-c2cnc3ccccc3n2)cc1NC(=O)c1ccco1 [compound 54, N-[2-methoxy-5-(2-quinoxalinyl)phenyl]-2-furamide]	7.83
O=C(CCCN1C(=O)c2cccc3cccc(c23)C1=O)N1CCCCC1 [compound 71, 2-[4-oxo-4-(1-piperidinyl)butyl]-1H-benzo[de]isoquinoline-1,3(2H)-dione]	6.67
